Measured values published in patent US20070191420A1, “Kinase inhibitors” (Devgen NV, priority 2004, published 2007).
pIC50: −log10 of the molar value. Where a name gives a salt, the structure may show the parent alone.

Columns and labels:
Assay in all cases: Fluorescence polarization (FP) PKC inhibition assay, Protein Kinase C Assay Kit, Red (Invitrogen)
Assay type in all cases: biochemical
PKC zeta = target: T1, PKC zeta (Homo sapiens, UniProt Q05513); settings: enzyme 20 ng/ml, ATP 2.5 μM, substrate […] 1 μM
T1 construct: purchased Invitrogen 9232
T1 sequence (Q05513 1-592): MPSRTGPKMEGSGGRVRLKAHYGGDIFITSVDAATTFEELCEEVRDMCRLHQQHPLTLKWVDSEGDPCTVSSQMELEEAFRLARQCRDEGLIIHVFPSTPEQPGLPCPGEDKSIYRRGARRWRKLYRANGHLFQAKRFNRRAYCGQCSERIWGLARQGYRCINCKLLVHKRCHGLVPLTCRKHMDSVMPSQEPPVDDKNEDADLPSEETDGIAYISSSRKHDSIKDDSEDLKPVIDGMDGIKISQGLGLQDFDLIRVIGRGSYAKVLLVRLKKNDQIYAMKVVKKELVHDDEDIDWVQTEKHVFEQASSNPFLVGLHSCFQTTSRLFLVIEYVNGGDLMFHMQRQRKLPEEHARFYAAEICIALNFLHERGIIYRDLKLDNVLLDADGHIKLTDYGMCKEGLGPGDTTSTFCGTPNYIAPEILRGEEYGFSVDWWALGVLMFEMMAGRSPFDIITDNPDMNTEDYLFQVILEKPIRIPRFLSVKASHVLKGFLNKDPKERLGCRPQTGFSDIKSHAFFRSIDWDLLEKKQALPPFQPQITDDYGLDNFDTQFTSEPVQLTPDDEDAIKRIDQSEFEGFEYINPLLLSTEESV
Protocol: (§1) To perform the assay, 2 μl of a solution of the compound to be tested in DMSO (at each concentration) was added to 6 μl of a solution of the enzyme in 10 mM HEPES, 5 mM dithiotreitol, 0.1% Triton X-100, pH 7,4.
(§2) After incubating for 30 minutes at room temperature, 4 μl of a mixture of ATP and the protein substrate in 60 mM HEPES (pH7.4), 15 mM MgCl2, 0.3 mM CaCl2, 0.06% NP40 was added.
(§3) After incubating for 80 minutes at room temperature, 3 μl of a mix solution of 500 mM EDTA (stop solution) and the Rhodamine-based PKC Red Tracer (from the Protein Kinase C Assay Kit) in BGG/phosphate buffer (pH7.4) with 0.02% NaN3 and 0.1% Triton X-100 was added and 5 μl of a the Anti-Phosphoserine antibody (also from the Protein Kinase C Assay Kit) in BGG/phosphate buffer (pH7.4) with 0.02% NaN3.
(§4) The results were fitted to a curve using the XL-Fit algorithm and IC50 values were calculated for each fitted curve, again using the XL-Fit algorithm.

PKC epsilon = target: T2, PKC epsilon (Homo sapiens, UniProt Q02156); settings: enzyme 10 ng/ml, ATP 2.5 μM, substrate […] 1 μM
T2 construct: purchased Invitrogen 6906
T2 sequence (Q02156 1-737): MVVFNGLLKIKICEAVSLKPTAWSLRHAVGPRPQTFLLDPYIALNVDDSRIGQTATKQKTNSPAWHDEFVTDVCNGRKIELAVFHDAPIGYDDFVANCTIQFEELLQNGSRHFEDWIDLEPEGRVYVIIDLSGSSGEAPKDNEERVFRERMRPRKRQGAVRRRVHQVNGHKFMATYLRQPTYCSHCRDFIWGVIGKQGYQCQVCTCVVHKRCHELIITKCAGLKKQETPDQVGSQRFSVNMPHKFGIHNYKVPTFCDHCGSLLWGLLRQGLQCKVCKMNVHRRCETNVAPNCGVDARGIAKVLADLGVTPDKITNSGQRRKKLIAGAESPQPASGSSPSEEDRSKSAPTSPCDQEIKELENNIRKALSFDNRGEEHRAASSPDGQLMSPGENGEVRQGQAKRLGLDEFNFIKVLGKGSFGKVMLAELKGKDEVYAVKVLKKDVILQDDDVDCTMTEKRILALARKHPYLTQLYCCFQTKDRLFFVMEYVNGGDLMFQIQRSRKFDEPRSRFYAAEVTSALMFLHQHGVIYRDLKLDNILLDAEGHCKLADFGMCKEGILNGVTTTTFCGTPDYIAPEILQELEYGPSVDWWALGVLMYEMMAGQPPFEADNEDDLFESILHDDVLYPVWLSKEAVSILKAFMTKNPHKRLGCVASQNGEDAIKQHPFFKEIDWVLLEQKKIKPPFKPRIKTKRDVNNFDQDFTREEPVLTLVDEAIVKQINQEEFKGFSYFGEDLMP
Protocol: (§5) The substrate used was […]
as §1, §2, §3, §4

PKC gamma = target: T3, PKC gamma (Homo sapiens, UniProt P05129); settings: enzyme 20 ng/ml, ATP 2.5 μM, substrate […] 1 μM
T3 construct: purchased Invitrogen 9343
Protocol: as §5, §1, §2, §3, §4

PKC theta = target: T4, PKC theta (Homo sapiens, UniProt Q04759); settings: enzyme 20 ng/ml, ATP 2.5 μM, substrate […] 1 μM
T4 construct: purchased Invitrogen 7101
T4 sequence (Q04759 whole entry): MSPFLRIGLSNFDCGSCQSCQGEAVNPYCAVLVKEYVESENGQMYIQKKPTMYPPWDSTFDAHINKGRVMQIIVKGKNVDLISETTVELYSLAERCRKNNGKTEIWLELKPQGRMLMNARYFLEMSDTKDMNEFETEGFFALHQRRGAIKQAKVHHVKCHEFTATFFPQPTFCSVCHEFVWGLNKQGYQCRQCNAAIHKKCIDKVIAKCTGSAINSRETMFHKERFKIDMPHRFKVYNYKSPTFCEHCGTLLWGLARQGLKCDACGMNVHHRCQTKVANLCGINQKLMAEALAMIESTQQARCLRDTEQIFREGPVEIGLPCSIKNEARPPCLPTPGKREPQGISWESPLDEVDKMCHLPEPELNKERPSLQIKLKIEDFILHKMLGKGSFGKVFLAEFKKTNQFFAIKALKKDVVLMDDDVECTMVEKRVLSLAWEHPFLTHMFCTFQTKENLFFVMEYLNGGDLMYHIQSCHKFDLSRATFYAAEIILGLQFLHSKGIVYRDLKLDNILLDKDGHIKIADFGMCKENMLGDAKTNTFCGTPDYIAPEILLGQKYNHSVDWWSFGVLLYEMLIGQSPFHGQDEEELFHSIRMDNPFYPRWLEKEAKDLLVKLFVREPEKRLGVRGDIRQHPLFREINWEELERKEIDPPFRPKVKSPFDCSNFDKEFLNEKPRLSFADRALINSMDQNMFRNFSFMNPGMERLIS
Protocol: as §5, §1, §2, §3, §4

pIC50 (PKC zeta)	pIC50 (PKC epsilon)	pIC50 (PKC gamma)	pIC50 (PKC theta)	SMILES
< 4.00	< 4.00	< 4.00	< 4.00	CC(=O)NCc1ccc(C(=O)Nc2ccncc2)cc1 [Compound 16]
< 4.00	< 4.00	< 4.00	< 4.00	NC[C@H]1CC[C@H](C(=O)NCc2ccncc2)CC1 [Compound 5, Trans-4-aminomethyl-cyclohexanecarboxylic acid (pyridine-4-ylmethyl)-amide]
< 4.00	5.21	< 4.00	4.86	NC1CCCc2cc(C(=O)Nc3ccncc3)ccc21 (stereo not drawn) [Compound 29]
< 4.00	5.43	< 4.00	5.09	O=C(Nc1ccncc1)c1ccc(C2CCCCN2)cc1 (stereo not drawn) [Compound 31, 4-piperidin-2-yl-N-pyridin-4-yl-benzamide dihydrochloric acid salt]
< 4.00	< 4.00	< 4.00	< 4.00	NCCCCCC(=O)Nc1ccncc1 [Compound 1, 6-Amino-hexanoic acid pyridine-4-ylamide dihydrochloric acid salt]
< 4.00	4.52	< 4.00	4.50	O=C(Nc1ccncc1)c1ccc2c(c1)CCNC2 [Compound 32, 1,2,3,4-tetrahydro-isoquinoline-6-carboxylic acid pyridinedin-4-yl-amide dihydrochloric acid salt]
< 4.00	5.59	< 4.00	5.11	NC(c1ccc(C(=O)Nc2ccncc2)cc1)C1CCCCC1 (stereo not drawn) [Compound 28]
< 4.00	< 4.00	< 4.00	< 4.00	NCc1ccc(S(=O)(=O)Nc2ccncc2)cc1 [Compound 10, 4-aminomethyl-N-pyridin-4-yl-benzenesulfonamide]
4.39	< 4.00	4.04	< 4.00	NC[C@H]1CC[C@H](C(=O)Nc2ccccc2)CC1 [Compound 3, Trans-4-aminomethyl-cyclohexanecarboxylic acid phenylamide hydrochloric acid salt]
< 4.00	< 4.00	< 4.00	< 4.00	CC(C)(C)C1CCC(C(=O)Nc2ccncc2)CC1 (stereo not drawn) [Compound 2, 4-tert-butyl-cyclohexanecarboxylic acid pyridine-4-ylamide]
< 4.00	5.01	< 4.00	4.76	O=C(Nc1ccncc1)c1ccc(C2CCCN2)cc1 (stereo not drawn) [Compound 30, N-pyridin-4-yl-4-pyrrolidin-2-yl-benzamide dihydrochloric acid salt]
< 4.00	< 4.00	< 4.00	< 4.00	NC[C@H]1CC[C@H](C(=O)Nc2ccccn2)CC1 [Compound 7, Trans-4-aminomethyl-cyclohexanecarboxylic acid pyridin-2-ylamide]
< 4.00	< 4.00	< 4.00	< 4.00	NC[C@H]1CC[C@H](C(=O)Nc2cccnc2)CC1 [Compound 6, Trans-4-aminomethyl-cyclohexanecarboxylic acid pyridin-3-ylamide]
4.61	5.29	< 4.00	5.13	NC[C@H]1CC[C@H](C(=O)Nc2ccncc2)CC1 [Compound 19, Trans-4-aminomethyl-cyclohexanecarboxylic acid pyridin-4-ylamide]
4.60	6.19	< 4.52	5.54	CCC(N)c1ccc(C(=O)Nc2ccncc2)cc1 (stereo not drawn) [Compound 24, 4-(1-amino-propyl)-N-pyridin-4-yl-benzamide dihydrochloric acid salt]
< 4.00	< 4.00	< 4.00	< 4.00	NCc1ccc(NCc2ccncc2)cc1 [Compound 11, (4-aminomethyl-phenyl)-pyridin-4-ylmethyl-amine dihydrochloric acid salt]

The next lines start with the compound.

SMILES	pIC50 (PKC zeta)	pIC50 (PKC epsilon)	pIC50 (PKC gamma)	pIC50 (PKC theta)
O=C(Nc1ccnc2[nH]ccc12)c1ccc2c(c1)CCNC2 [Compound 43]	< 4.00	5.00	4.66	5.07
CC(O)c1ccc(C(=O)Nc2ccncc2)cc1 (stereo not drawn) [Compound 8, 4-(1-hydroxy-ethyl)-N-pyridin-4-yl-benzamide]	< 4.00	< 4.00	< 4.00	< 4.00
CC(N)c1ccc(C(=O)Nc2ccnc3[nH]ccc23)cc1 (stereo not drawn) [Compound 41, 4-(1-amino-ethyl)-N-(1H-pyrrolo[2,3pyridinedin-4-yl)-benzamidedihydrochloric acid salt]	< 4.00	6.40	4.95	6.11
NCc1ccc(C(=O)Nc2ccncn2)cc1 [Compound 21, 4-aminomethyl-N-pyrimidin-4-yl-benzamide dihydrochloric acid salt]	< 4.00	4.46	< 4.00	4.06
N/C(=N\O)c1ccc(C(=O)Nc2ccncc2)cc1 [Compound 12, 4-(N-pyridin-4-yl)-benzamide oxime]	< 4.00	< 4.00	< 4.00	< 4.00
NCc1ccc(-c2nc(-c3ccncc3)no2)cc1 [Compound 13, 4-(3-pyridin-4-yl-[1,2,4]oxadiazol-5-yl-benzylaminedihydrochloric acid salt]	< 4.00	< 4.00	< 4.00	< 4.00
O=C(Nc1ccnc2[nH]ccc12)c1ccc(C2CCCCN2)cc1 (stereo not drawn) [Compound 44, 4-piperidin-2-yl-N-(1H-pyrrolo[2,3pyridinedin-4-yl)-benzamidedihydrobromic acid salt]	< 4.00	5.80	4.51	5.66
O=C(Nc1ccncc1)c1ccc(C2=NCCCN2)cc1 [Compound 34, N-pyridin-4-yl-4-(1,4,5,6-tetrahydro-1H-pyrimidin-2-yl)-benzamide]	< 4.00	4.71	< 4.00	4.12
NCc1ccc(-c2nc3ccncc3[nH]2)cc1 [Compound 14, 4-(3H-imidazo[4,5-c]pyridine-2-yl)-benzylamine]	< 4.00	< 4.00	< 4.00	< 4.00
CC(C)(C)CC(N)c1ccc(C(=O)Nc2ccncc2)cc1 (stereo not drawn) [Compound 25, 4-(1-amino-3,3-dimethyl-butyl)-N-pyridin-4-yl-benzamide dihydrochloric acid salt]	< 4.00	5.30	< 4.00	4.91
O=C(Nc1ccncc1)c1ccc(C2=NCCN2)cc1 [Compound 33, 4-(4,5-dihydro-1H-imidazol-2-yl)-N-pyridin-4-yl-benzamide]	< 4.00	4.21	< 4.00	4.27
